Data from PubChem BioAssay AID248 (DTP/NCI, 2004).
“And” between values parts separate entries of the source, which are not always exact repeats. Identical values can stand only once. Toxic doses and inconclusive results are not listed.

Test system: L1210 leukemia ip in BDF1 mice, survival T/C
Test: NCI In Vivo Anticancer Drug Screen. Data for tumor model L1210 Leukemia (intraperitoneal) in B6D2F1 (BDF1) mice
Settings: endpoint: mean survival time, higher = longer survival
How it was run: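 Each compound was tested against a transplantable tumor grown in mice. The endpoint was survival, with treated animals benchmarked against vehicle controls as a simple ratio.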

[1] = dose: 2.0 mg/kg/injection, schedule: Q04DX003 (ip), vehicle: saline
[2] = dose: 6.25 mg/kg/injection, schedule: Q01DX009 (ip), vehicle: saline
[3] = dose: 12.5 mg/kg/injection, schedule: Q04DX003 (ip), vehicle: saline
[4] = dose: 12.5 mg/kg/injection, schedule: Q01DX009 (ip), vehicle: saline

SMILES: Cc1n(CC(C)C)c2c([n+]1C)C(=O)c1ccccc1C2=O
- T/C (dose: 0.03 mg/kg/injection, schedule: Q01DX001 (ip), vehicle: saline): 98 % of control
- T/C (dose: 0.06 mg/kg/injection, schedule: Q01DX001 (ip), vehicle: saline): 109 % of control
- T/C (dose: 0.12 mg/kg/injection, schedule: Q01DX001 (ip), vehicle: saline): 106 % of control
- T/C (dose: 0.24 mg/kg/injection, schedule: Q01DX001 (ip), vehicle: saline): 101 % of control
- T/C (dose: 0.25 mg/kg/injection, schedule: Q01DX015 (ip), vehicle: saline): 97 % of control
- T/C (dose: 0.5 mg/kg/injection, schedule: Q01DX015 (ip), vehicle: saline): 95 % of control
- T/C (dose: 1.0 mg/kg/injection, schedule: Q01DX015 (ip), vehicle: saline): 106 % of control and 108 % of control
- T/C (dose: 2.0 mg/kg/injection, schedule: Q01DX015 (ip), vehicle: saline): 108 % of control
- T/C [1]: 91 % of control

SMILES: ClCCOCCOc1ccccc1OCCOCCCl
- T/C (dose: 50.0 mg/kg/injection, schedule: Q04DX002 (ip), vehicle: saline with Tween-80): 100 % of control
- T/C (dose: 100.0 mg/kg/injection, schedule: Q04DX002 (ip), vehicle: saline with Tween-80): 90 % of control

SMILES: O=C(Nc1ccc(N=C(c2ccccc2)N2CCOCC2)cc1)c1ccc(C(=O)Nc2ccc(N=C(c3ccccc3)N3CCOCC3)cc2)cc1
- T/C (dose: 62.0 mg/kg/injection, schedule: Q01DX Z (ip), vehicle: carboxymethylcellulose (CMC)): 92 % of control
- T/C (dose: 125.0 mg/kg/injection, schedule: Q01DX Z (ip), vehicle: carboxymethylcellulose (CMC)): 86 % of control
- T/C (dose: 250.0 mg/kg/injection, schedule: Q01DX Z (ip), vehicle: carboxymethylcellulose (CMC)): 91 % of control

SMILES: CCOC(=O)Nc1cc2c(c(=O)[nH]1)N=C(CN(C)c1ccc(C(=O)OC)cc1)CN2
- T/C (dose: 100.0 mg/kg/injection, schedule: Q01DX001 (ip), vehicle: alkali diluted with saline): 104 % of control
- T/C (dose: 200.0 mg/kg/injection, schedule: Q01DX001 (ip), vehicle: alkali diluted with saline): 96 % of control
- T/C (dose: 400.0 mg/kg/injection, schedule: Q01DX001 (ip), vehicle: alkali diluted with saline): 102 % of control

SMILES: C[n+]1c2cc(N)ccc2cc2ccc(N)cc21
- T/C (dose: 3.0 mg/kg/injection, schedule: Q04DX003 (ip), vehicle: saline): 108 % of control
- T/C (dose: 3.5 mg/kg/injection, schedule: Q01DX009 (ip), vehicle: saline): 111 % of control
- T/C (dose: 5.3 mg/kg/injection, schedule: Q01DX009 (ip), vehicle: saline): 118 % of control
- T/C (dose: 6.0 mg/kg/injection, schedule: Q04DX003 (ip), vehicle: saline): 105 % of control
- T/C [2]: 122 % of control
- T/C (dose: 12.0 mg/kg/injection, schedule: Q04DX003 (ip), vehicle: saline): 113 % of control
- T/C [3]: 98 % of control

SMILES: O=C(C[n+]1ccccc1)CC(O)(C(F)(F)F)C(F)(F)F
- T/C (dose: 100.0 mg/kg/injection, schedule: Q04DX003 (ip), vehicle: saline with Tween-80): 104 % of control
- T/C (dose: 200.0 mg/kg/injection, schedule: Q04DX003 (ip), vehicle: saline with Tween-80): 103 % of control
- T/C (dose: 400.0 mg/kg/injection, schedule: Q04DX003 (ip), vehicle: saline with Tween-80): 98 % of control

SMILES: Cc1ccc(S(=O)(=O)N(CCCc2c(C)nc(N)[nH]c2=O)Cc2ccc([N+](=O)[O-])cc2)cc1
- T/C (dose: 75.0 mg/kg/injection, schedule: Q01DX001 (ip), vehicle: Klucel (hydroxypropylcellulose) (HPC)): 102 % of control
- T/C (dose: 150.0 mg/kg/injection, schedule: Q01DX001 (ip), vehicle: Klucel (hydroxypropylcellulose) (HPC)): 97 % of control
- T/C (dose: 300.0 mg/kg/injection, schedule: Q01DX001 (ip), vehicle: Klucel (hydroxypropylcellulose) (HPC)): 103 % of control

SMILES: C1CN2CCN1CC2.[Cl][Ni+][Cl]
- T/C (dose: 1.56 mg/kg/injection, schedule: Q01DX009 (ip), vehicle: saline): 101 % of control
- T/C [1]: 109 % of control
- T/C (dose: 3.12 mg/kg/injection, schedule: Q01DX009 (ip), vehicle: saline): 101 % of control
- T/C (dose: 4.0 mg/kg/injection, schedule: Q04DX003 (ip), vehicle: saline): 106 % of control
- T/C [2]: 94 % of control
- T/C (dose: 8.0 mg/kg/injection, schedule: Q04DX003 (ip), vehicle: saline): 97 % of control
- T/C [4]: 92 % of control
- T/C (dose: 16.0 mg/kg/injection, schedule: Q04DX003 (ip), vehicle: saline): 105 % of control

SMILES: C/C=C(\C)C(=O)O[C@@H]1c2cc3c(cc2-c2c(cc(OC)c(OC)c2OC)[C@@H]2C(=O)OC[C@@H]12)OCO3
- T/C (dose: 8.0 mg/kg/injection, schedule: Q01DX009 (ip), vehicle: saline + alcohol): 94 % of control
- T/C (dose: 12.0 mg/kg/injection, schedule: Q01DX009 (ip), vehicle: saline + alcohol): 108 % of control
- T/C (dose: 18.0 mg/kg/injection, schedule: Q01DX009 (ip), vehicle: saline + alcohol): 105 % of control
- T/C (dose: 27.0 mg/kg/injection, schedule: Q01DX009 (ip), vehicle: saline + alcohol): 100 % of control

SMILES: Cc1cc(N(CCOS(C)(=O)=O)CCOS(C)(=O)=O)ccc1C=Nc1cc(Br)c(O)c(Br)c1
- T/C (dose: 25.0 mg/kg/injection, schedule: Q04DX003 (ip), vehicle: Klucel (hydroxypropylcellulose) (HPC)): 107 % of control and 111 % of control
- T/C (dose: 50.0 mg/kg/injection, schedule: Q04DX003 (ip), vehicle: Klucel (hydroxypropylcellulose) (HPC)): 109 % of control
- T/C (dose: 75.0 mg/kg/injection, schedule: Q04DX003 (ip), vehicle: Klucel (hydroxypropylcellulose) (HPC)): 175 % of control

SMILES: Cc1c2cc3c(cc2cc2c4cc5c(cc4cc[n+]12)OCO5)OCO3 (tested in a mixture with another compound)
- T/C (dose: 5.5 mg/kg/injection, schedule: Q04DX003 (ip), vehicle: saline): 110 % of control
- T/C [2]: 110 % of control
- T/C (dose: 8.3 mg/kg/injection, schedule: Q04DX003 (ip), vehicle: saline): 108 % of control
- T/C [4]: 89 % of control
- T/C [3]: 98 % of control
- T/C (dose: 18.7 mg/kg/injection, schedule: Q04DX003 (ip), vehicle: saline): 93 % of control

SMILES: CCC(=O)Nc1ccccc1
- T/C (dose: 100.0 mg/kg/injection, schedule: Q01DX009 (ip), vehicle: Klucel (hydroxypropylcellulose) (HPC)): 101 % of control
- T/C (dose: 100.0 mg/kg/injection, schedule: Q04DX003 (ip), vehicle: Klucel (hydroxypropylcellulose) (HPC)): 100 % of control
- T/C (dose: 200.0 mg/kg/injection, schedule: Q01DX009 (ip), vehicle: Klucel (hydroxypropylcellulose) (HPC)): 95 % of control
- T/C (dose: 200.0 mg/kg/injection, schedule: Q04DX003 (ip), vehicle: Klucel (hydroxypropylcellulose) (HPC)): 104 % of control
- T/C (dose: 400.0 mg/kg/injection, schedule: Q01DX009 (ip), vehicle: Klucel (hydroxypropylcellulose) (HPC)): 108 % of control
- T/C (dose: 400.0 mg/kg/injection, schedule: Q04DX003 (ip), vehicle: Klucel (hydroxypropylcellulose) (HPC)): 114 % of control

SMILES: CNCCc1cc2c(cc1C=O)OCO2
- T/C (dose: 75.0 mg/kg/injection, schedule: Q01DX001 (ip), vehicle: saline): 96 % of control
- T/C (dose: 150.0 mg/kg/injection, schedule: Q01DX001 (ip), vehicle: saline): 106 % of control

SMILES: O=C(c1ccc(N2CC=C(c3ccccc3)CC2)cc1)C1CC1
- T/C (dose: 100.0 mg/kg/injection, schedule: Q04DX002 (ip), vehicle: Klucel (hydroxypropylcellulose) (HPC)): 92 % of control
- T/C (dose: 200.0 mg/kg/injection, schedule: Q04DX002 (ip), vehicle: Klucel (hydroxypropylcellulose) (HPC)): 95 % of control
- T/C (dose: 400.0 mg/kg/injection, schedule: Q04DX002 (ip), vehicle: Klucel (hydroxypropylcellulose) (HPC)): 89 % of control

SMILES: CCOC(=O)NC(CC)NC(=O)OCC
- T/C (dose: 100.0 mg/kg/injection, schedule: Q01DX001 (ip), vehicle: saline): 101 % of control
- T/C (dose: 200.0 mg/kg/injection, schedule: Q01DX001 (ip), vehicle: saline): 103 % of control
- T/C (dose: 400.0 mg/kg/injection, schedule: Q01DX001 (ip), vehicle: saline): 97 % of control
